Measurements as given in patent US4795826A, “Ortho-phenylenediamine compounds” (priority 1986, dated 1989).
Entries after “also recorded” stand apart in the source; their conditions may differ.

Columns and labels:
P388 leukemia = P388 leukemia in vivo (increase in lifespan of mice, i.p. tumour); details: for active (P388): P388, at the stated dose; for ILSmax (percentage increase in lifespan), marked * / ILSmax (percentage increase in lifespan): P388, at OD on days 1, 5, 9, >20% statistically significant; for ILSmax (percentage increase in lifespan): values without asterisk, controls 11 days
[1] = Potency and antitumour activity in in vivo test systems (general statements)
Lewis lung carcinoma = Lewis lung carcinoma in vivo (increase in lifespan of mice, i.v. tumour); details: for ILS (percentage increase in lifespan) / ILS (percentage increase in lifespan), marked *: at OD on days 1, 5, 9, >40% statistically significant; for ILS (percentage increase in lifespan): values without asterisk, controls 17 days; for active (Lewis lung): at the stated dose
Aerobacter aerogenes = experiment: Antibacterial activity
Alcaligenes viscolactis = experiment: Antibacterial activity
Escherichia coli = experiment: Antibacterial activity
Bacillus subtilis = experiment: Antibacterial activity
Sarcina lutea = experiment: Antibacterial activity
[2] = system: Micrococcus lysodeikticus; experiment: Antibacterial activity
Neisseria catarrhalis = experiment: Antibacterial activity
Staphylococcus aureus = experiment: Antibacterial activity
Xanthomonas phaseoli = experiment: Antibacterial activity
Streptococcus faecalis = experiment: Antibacterial activity
[3] = 3'-substituted AMSA analogues; earlier publications; cited from earlier work
mouse L1210 leukemia = mouse L1210 leukemia model; Atwell, Cain and Seelye 1972; cited from earlier work

Row | SMILES | active (P388) (P388 leukemia) | ILS (percentage increase in lifespan) (Lewis lung carcinoma; Lewis lung) | active (Lewis lung) (Lewis lung carcinoma; Lewis lung) | ILSmax (percentage increase in lifespan), marked * (P388 leukemia) | also measured
1 | CNc1cc(NS(C)(=O)=O)ccc1Nc1c2ccccc2nc2ccccc12 [Compound 1] | Y | 85% | Y | – | potency and antitumour activity (in words) [1]: increased potency and antitumour activity compared to the unsubstituted AMSA and the 3'-methoxy derivative m-AMSA (amsacrine)
2 | CNc1cc(NS(C)(=O)=O)ccc1Nc1c2ccccc2nc2c(C)cccc12 [Compound 12] | Y | – | Y | 157% | antibacterial activity (Aerobacter aerogenes): active; antibacterial activity (Alcaligenes viscolactis): active; antibacterial activity (Escherichia coli): active; antibacterial activity (Bacillus subtilis): active; antibacterial activity (Sarcina lutea): active; antibacterial activity [2]: active; antibacterial activity (Neisseria catarrhalis): active; antibacterial activity (Staphylococcus aureus): active; antibacterial activity (Xanthomonas phaseoli): active; antibacterial activity (Streptococcus faecalis): active; ILS (percentage increase in lifespan), marked * (Lewis lung carcinoma; Lewis lung): 159%
3 | CN(C)c1cc(NS(C)(=O)=O)ccc1Nc1c2ccccc2nc2ccccc12 [Compound 32] | Y | > 250% | Y | 212% | cured animals (Lewis lung carcinoma; Lewis lung, at OD): all cured
4 | CNc1cc(NC(=O)OC)ccc1Nc1c2ccc(Br)cc2nc2c(C)cccc12 [Compound 57] | Y | – | Y | – | ILSmax (percentage increase in lifespan) (P388 leukemia): 97%; ILS (percentage increase in lifespan), marked * (Lewis lung carcinoma; Lewis lung): 82%
5 | COc1cc(NS(C)(=O)=O)ccc1Nc1c2ccccc2nc2ccccc12 [m-AMSA, 4'-(9-acridinylamino)methanesulphon-m-anisidide, reference compound] | Y | 38% | Y/N | – | ILSmax (percentage increase in lifespan) (P388 leukemia): 78%; antitumour activity / dose potency (in words) [3]: increased dose potency; Lewis lung activity (in words) (Lewis lung carcinoma; tumour implanted intravenously, ILS of 40% required for statistical significance): minimal activity; also recorded: strictly inactive
6 | CS(=O)(=O)Nc1ccc(Nc2c3ccccc3nc3ccccc23)cc1 [AMSA, 4'-(9-acridinylamino) methanesulphonanilide] | – | – | – | – | antitumour activity (mouse L1210 leukemia): good antitumour activity
7 | CNc1cc(NS(C)(=O)=O)ccc1Nc1c2ccc(Cl)cc2nc2c(C)cccc12 [Compound 19] | Y | 126% | Y | 128% | –
